The values that follow come from patent EP4056546A1, “ALIPHATIC 18F-RADIOLABELING OF A TETRAZINE PRECURSOR” (University of Copenhagen, priority 2021, dated 2022).

Data set [1] in a line: Reaction kinetics measurement: second-order rate constants of tetrazines with TCO (stopped-flow photometer, pseudo-first-order). The data set is classed as physicochemical. To be noted: Second order rate constants with TCO at 37 °C in PBS. The procedure: Reaction kinetics of tetrazines with standard TCO were determined using pseudo-first-order measurements with an excess of the TCO compound in PBS (pH = 7.4) at 37.0 ± 0.1 °C following the decrease of tetrazine absorbance at 535 nm. Measurements were performed in triplicates using an SX20 stopped-flow photometer (Applied Photophysics, UK) equipped with a 535 nm LED light source. Data analysis was performed using Prism 6 (Graphpad) to determine the observed rate constants which were converted into secondorder rate constants through dividing by the TCO concentration.
Second-order rate constants for the reaction with TCO in PBS at 37 °C were determined by pseudo-first order measurements in a SX20 stopped flow photometer (Applied Photophysics).

Data set [2] can be described thus: Bench stability by analytical HPLC. The data set is classed as physicochemical. An excerpt: The stability of [^18F]13 and it precursor (28) was investigated by analytical HPLC.
The subject of data set [3] is CC49-TCO. As to the kind of experiment: Pretargeted PET/CT imaging in LS174T tumor xenograft bearing mice. The data set is classed as in vivo, Balb/c nude mice. The procedure:
The ability of [^18F]13 to be used as a pretargeting imaging agent was evaluated using a similar pretargeted setup that was used for the ex vivo blocking study in example 7. Mice were administered with CC49-TCO 72 h prior to administration of [^18F]13 where after PET/CT scanning was performed 1 h later. Control animals were injected with unconjugated mAb CC49 instead of CC49-TCO, but were otherwise treated exactly the same. After PET/CT scanning, animals were euthanized and an ex vivo biodistribution performed. […] The tumor uptake was clearly visible. A tumor-to-muscle (T/M) ratio of 20.1 and a tumor-to-blood (T/B) ratio of 1.2 from the image derived data (heart uptake used as surrogate for blood uptake) was determined. The relatively low T/B ratio is likely due to ligation of [^18F]13 with remnant CC49-TCO still circulating in the blood. Clearance of CC49-TCO from blood will most likely increase the ratio drastically. Uptake in tissues beside tumor and blood was low. […]
Pretargeted imaging of [^18F]13 as tested in vivo using the TAG-72 targeting antibody CC49 in human colorectal cancer xenograft tumors LS174T. […] The radioactivity in the tissues were determined using a gamma counter (Wizard^2, Perkin Elmer). Data was corrected for decay, tissue weight and the injected dose of radioactivity. […] Statistical difference between mean %ID/g values were analyzed using Welch's T-test. […]

The nature of data set [4]: Tetrazine core reactivity test with TCO-PNP (analytical HPLC). To be noted: after 4 hours at r.t. The data set is classed as physicochemical. The procedure:
The reaction between [^18F]13 TCO-PNP was performed by mixing the formulated [^18F]13 (200 µL) with 5 µL of the commercially available TCO-PNP ester dissolved in DMF (5 mg/mL) in an analytical HPLC vial. […]

In the case of `O=C(O)C(F)(F)F.O=C(O)CN(CCF)Cc1cccc(-c2nncnn2)c1` [Compound 10, N-(3-(1,2,4,5-tetrazin-3-yl)benzyl)-N-(carboxymethyl)-2-fluoroethanaminium 2,2,2-trifluoroacetate], the Rate constant in data set [1] worked out at 62464 M⁻¹ s⁻¹.
Same read-out and setting: to `O=C(O)C(F)(F)F.O=C(O)CN(CCF)Cc1cc(F)cc(-c2nncnn2)c1` [Compound 9, N-(carboxymethyl)-2-fluoro-N-(3-fluoro-5-(1,2,4,5-tetrazin-3-yl)benzyl)ethanaminium 2,2,2-trifluoroacetate] belongs 87722 M⁻¹ s⁻¹; to `O=C(O)C(F)(F)F.O=C(O)CN(CCF)Cc1ccc(-c2nncnn2)cc1F` [Compound 11, N-(carboxymethyl)-2-fluoro-N-(2-fluoro-4-(1,2,4,5-tetrazin-3-yl)benzyl)ethanaminium 2,2,2-trifluoroacetate], 74592 M⁻¹ s⁻¹; to `O=C(O)C(F)(F)F.O=C(O)CN(CCF)Cc1ccc(-c2nncnn2)cc1` [Compound 12, N-(4-(1,2,4,5-tetrazin-3-yl)benzyl)-N-(carboxymethyl)-2-fluoroethanaminium 2,2,2-trifluoroacetate], 54999 M⁻¹ s⁻¹.
With `CC(C)(C)OC(=O)CN(CC(=O)OC(C)(C)C)Cc1ccc(-c2nncnn2)cc1OCCOS(=O)(=O)c1ccc([N+](=O)[O-])cc1` [Compound 28, Di-tert-butyl 2,2'-((2-(2-(((4-nitrophenyl)sulfonyl)oxy)ethoxy)-4-(1,2,4,5-tetrazin-3-yl)benzyl)azanediyl)diacetate], the “stability of the precursor” value in data set [2] (bench stability, analytical HPLC) was “decomposed over time”. Also, the “stability of the precursor (time stable)” value is reported as “at least 3 months” in data set [2] (dissolved (25 mg/mL) in DMSO and frozen at -20 °C); ≥ 3 months in data set [2] (stored at -20 °C as a solid).
Take `O=C(O)CN(CC(=O)O)Cc1ccc(-c2nncnn2)cc1OCC[18F]` [[^18F]13]: the “tumor-to-muscle ratio in comparison with [64Cu]Cu-NOTa-PEG7-H-Tz, [111In]Tz-Tg and ZZ” value in data set [3] (PET imaging, Figure 6) was “highest tumor-to-musle ratio”. The “Uptake in tissues beside tumor and blood” value in data set [3] (PET/CT 1 h p.i., CC49-TCO pretargeted) is “low”. Moreover, the “Stability at r.t. over 4 hours” value in data set [2] (after 4 hours, Figure 5A) is “no signs of decomposition”. In addition, the “stability (time stable)” value in data set [2] (analytical HPLC, r.t.) was “at least 4 hours”. In data set [4], the “ability to react with TCO-PNP” value is on record as “still able to react quantitatively with TCO-PNP”.
Compound `O=C(O)C(F)(F)F.O=C(O)CN(CC(=O)O)Cc1ccc(-c2nncnn2)cc1OCCF` [Compound 13, 1-Carboxy-N-(carboxymethyl)-N-(2-(2-fluoroethoxy)-4-(1,2,4,5-tetrazin-3-yl)benzyl) methanaminium 2,2,2-trifluoroacetate] returned a Rate constant in data set [1] of 68478 M⁻¹ s⁻¹.
